The values below are quoted from earlier work in US20050113573A1, “Nitroso compounds to treat ischemia” (priority 2003, published 2005).

One data set has as its system platelet adhesion. The note with it: pigs.
A further data set concerns neointimal proliferation. The note with it: rat.
The test system of the next data set is rabbit iliac arteries. The note with it: rabbit iliac arteries after balloon angioplasty.
For data set [1], the system named is ischemically injured livers. The note with it: severe ischemia/reperfusion.
Another data set deals with cerebral infarcts. The note with it: versus vehicle treated animals.
The conditions of data set [2]: 700 stable coronary patients, treated before the angioplasty.
Data set [3] concerns smooth muscle cell proliferation. The note with it: pigs.
In the next data set the test system is femoral arteries. The note with it: hypercholesterolemic mice, prolonged treatment.
Data set [4] deals with intimal proliferation and platelet deposition. The note with it: rabbits, local administration, after vascular arterial balloon injury.

`N=c1c[n+](N2CCOCC2)[n-]o1` [3-morpholino-sydnonimine]: the “effect on platelet adhesion” value in the data set on platelet adhesion is recorded as “antiadhesive effects”.
For the compound `CC(C(=O)OCCCCO[N+](=O)[O-])c1ccc(-c2ccccc2)c(F)c1` (stereo not shown) [HCT-1026], in the data set with neointimal proliferation, the neointimal proliferation result is reported as “reduction in the neointimal proliferation” and the nitrite/nitrate plasma levels result was “increase in nitrite/nitrate plasma levels”.
On to `N=C(N)NCCC[C@H](N)C(=O)O` [L-arginine], for which the neointimal area entry in the data set on rabbit iliac arteries was “significant reduction of the neointimal area”. In addition, the “liver function, neutrophil infiltration and animal survival after liver ischemia/reperfusion injury” value in data set [1] is “beneficial for the liver after severe ischemia/reperfusion”. Moreover, the cerebral infarcts entry with cerebral infarcts is given as “smaller cerebral infarcts than those in vehicle treated animals”.
For the compound `CCOC(=O)[N-]c1cn(N2CCOCC2)n[o+]1` [molsidomine], the neointimal area result in the data set on rabbit iliac arteries is recorded as “significant reduction of the neointimal area”. In [2], the clinical outcome is given as “no effect on the clinical outcome” and the long-term angiographic result is on record as “modest improvement in the long-term angiographic result”. Besides, in [3], the “smooth muscle cell proliferation following balloon angioplasty” value is listed as “inhibits smooth muscle cell proliferation following balloon angioplasty”.
For `CC(=O)Oc1ccccc1C(=O)Oc1cccc(CO[N+](=O)[O-])c1` [nitric oxide releasing aspirin], the “vascular inflammation and apoptosis during vascular remodeling” value in the data set with femoral arteries was “reduced the vascular inflammation and promoted apoptosis”.
For “S-nitroso-bovine serum albumin: protein adduct of nitric oxide, locally delivered”, in [4], the “intimal proliferation and platelet deposition” value is “inhibited intimal proliferation and platelet deposition”.
As to “poly thiolated form of bovine serum albumin: poly thiolated form of bovine serum albumin modified to include several S-nitrosothiol groups”, in data set [4], the “intimal proliferation and platelet deposition” value is “inhibited intimal proliferation and platelet deposition”.
